{"source": "paper PMC7640639", "about": "(Journal of medicinal chemistry, 2019)", "key": {"μ-opioid receptor (MOR)": {"biological_target": "μ-opioid receptor (MOR) (Homo sapiens, UniProt P35372)", "sequence (P35372 whole entry)": "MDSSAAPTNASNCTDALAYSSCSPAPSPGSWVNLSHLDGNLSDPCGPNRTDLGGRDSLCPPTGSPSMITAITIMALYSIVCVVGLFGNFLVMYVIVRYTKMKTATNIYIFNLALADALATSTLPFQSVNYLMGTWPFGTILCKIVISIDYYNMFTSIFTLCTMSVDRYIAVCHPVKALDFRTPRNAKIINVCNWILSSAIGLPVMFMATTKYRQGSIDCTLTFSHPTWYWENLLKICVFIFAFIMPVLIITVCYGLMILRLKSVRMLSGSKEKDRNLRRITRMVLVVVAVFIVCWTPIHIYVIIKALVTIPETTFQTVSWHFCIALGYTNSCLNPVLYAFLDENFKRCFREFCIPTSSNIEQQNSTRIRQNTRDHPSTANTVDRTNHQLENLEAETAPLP"}, "[1]": {"system": "murine microglial cell line N9"}, "[2]": {"system": "Aβ25–35-induced learning impairments in mice", "details": "mouse, in vivo, ip"}, "liver": {"system": "liver", "details": "mouse, in vivo, ip, 3 mg/kg"}, "hCB2R [3]": {"biological_target": "T1, hCB2R (Homo sapiens, UniProt P34972)", "T1 sequence (P34972 whole entry)": "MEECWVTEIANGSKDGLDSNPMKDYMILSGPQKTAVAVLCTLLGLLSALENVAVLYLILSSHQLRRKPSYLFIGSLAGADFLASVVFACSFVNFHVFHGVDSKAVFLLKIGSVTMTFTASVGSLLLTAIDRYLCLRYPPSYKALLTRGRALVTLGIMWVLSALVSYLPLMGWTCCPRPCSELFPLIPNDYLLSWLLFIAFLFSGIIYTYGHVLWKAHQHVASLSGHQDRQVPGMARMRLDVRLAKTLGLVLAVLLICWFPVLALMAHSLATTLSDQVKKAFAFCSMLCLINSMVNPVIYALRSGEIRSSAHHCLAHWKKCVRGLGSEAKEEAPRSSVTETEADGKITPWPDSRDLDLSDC"}, "hAChE": {"biological_target": "hAChE (Homo sapiens, UniProt P22303)", "sequence (P22303 32-614)": "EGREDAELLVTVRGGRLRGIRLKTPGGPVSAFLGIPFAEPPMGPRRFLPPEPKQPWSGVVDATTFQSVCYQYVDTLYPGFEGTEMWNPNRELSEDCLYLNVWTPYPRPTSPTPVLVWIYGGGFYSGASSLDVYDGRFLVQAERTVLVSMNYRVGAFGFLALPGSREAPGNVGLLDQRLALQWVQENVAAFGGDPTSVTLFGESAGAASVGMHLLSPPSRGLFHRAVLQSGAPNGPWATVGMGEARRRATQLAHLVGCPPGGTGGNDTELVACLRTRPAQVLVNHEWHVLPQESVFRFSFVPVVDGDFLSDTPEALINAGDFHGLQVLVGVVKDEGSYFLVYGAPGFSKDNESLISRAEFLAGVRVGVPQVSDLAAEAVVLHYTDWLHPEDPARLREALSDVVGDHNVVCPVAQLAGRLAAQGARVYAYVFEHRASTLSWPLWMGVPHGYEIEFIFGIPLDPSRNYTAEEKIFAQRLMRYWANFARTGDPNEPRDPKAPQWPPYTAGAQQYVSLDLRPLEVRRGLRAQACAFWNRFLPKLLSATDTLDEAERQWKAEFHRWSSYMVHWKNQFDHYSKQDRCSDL", "assay_type": "biochemical"}, "[4]": {"biological_target": "hAChE-induced Aβ40 aggregation (Homo sapiens, UniProt P22303)", "sequence (P22303 32-614)": "as above", "assay_type": "biochemical", "details": "[I] = 100 μM; Aβ40/hAChE 100:1"}, "Aβ42": {"biological_target": "Aβ42 (Homo sapiens, UniProt P05067)", "sequence (P05067 672-713)": "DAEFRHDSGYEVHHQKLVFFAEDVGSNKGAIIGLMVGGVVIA", "assay": "Inhibition of Aβ42 self-aggregation, thioflavin T fluorescence assay", "assay_type": "biochemical", "details": "50 μM inhibitor, 50 μM Aβ42 (1:1)"}, "HT-22 cells": {"system": "HT-22 cells", "assay": "Neuroprotection against glutamate-induced oxidative stress in HT-22 cells", "assay_type": "cell-based, mouse"}, "hCB2R [5]": {"biological_target": "T1, hCB2R", "details": "calcium mobilization"}, "hCB1R": {"biological_target": "hCB1R (Homo sapiens, UniProt P21554)", "sequence (P21554 whole entry)": "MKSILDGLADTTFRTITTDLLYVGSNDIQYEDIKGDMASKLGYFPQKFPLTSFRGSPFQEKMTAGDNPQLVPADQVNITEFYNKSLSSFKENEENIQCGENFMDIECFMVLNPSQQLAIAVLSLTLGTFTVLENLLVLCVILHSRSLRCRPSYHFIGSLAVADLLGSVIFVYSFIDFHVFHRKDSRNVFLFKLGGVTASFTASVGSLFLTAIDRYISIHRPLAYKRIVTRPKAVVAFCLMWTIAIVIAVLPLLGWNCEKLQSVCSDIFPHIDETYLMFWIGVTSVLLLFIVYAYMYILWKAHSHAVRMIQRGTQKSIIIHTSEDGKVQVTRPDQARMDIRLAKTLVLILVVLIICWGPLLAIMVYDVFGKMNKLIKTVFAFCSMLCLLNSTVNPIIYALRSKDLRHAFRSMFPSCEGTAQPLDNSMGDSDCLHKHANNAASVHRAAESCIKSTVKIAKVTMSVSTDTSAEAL", "details": "CHO-K1 cells, hCB1 and Gαq16"}, "[6]": {"system": "U266 myeloma cells (cAMP-regulated MIF and STAT-3 genes, hCB2R)"}, "[7]": {"details": "HT-22 cells, 5 mM glutamate, 24 h, MTT"}}, "note": "Where two headings read alike, the source gives them in different places."}
{"smiles": "CCOc1ccc(Cc2nc3cc(C(=O)NCCNc4c5c(nc6ccccc46)CCCC5)ccc3n2CCC(C)C)cc1", "note": "[4a, 2-(4-Ethoxybenzyl)-1-isopentyl-N-(2-((1,2,3,4-tetrahydroacridin-9-yl)amino)ethyl)-1H-benzo[d]imidazole-5-carboxamide]", "values": [{"measurement": "affinity at the μ-opioid receptor (in words)", "setting": "μ-opioid receptor (MOR)", "value": "significant affinity"}, {"measurement": "IL1β release and iNOS expression (M1 markers)", "setting": "[1]", "value": "significantly decrease"}, {"measurement": "NO release / nitrite accumulation", "setting": "[1]", "value": "reduced"}, {"measurement": "TREM2 and TGFβ2 expression (M2 markers)", "setting": "[1]", "value": "not reduced"}, {"measurement": "most effective dose, complete prevention of Aβ25–35 impairments in both tests", "setting": "[2]", "value": 1, "unit": "mg/kg"}, {"measurement": "necrosis positive/specimen", "setting": "liver", "value": "6/9"}, {"measurement": "necrosis reported area %", "setting": "liver", "value": "5–10%"}]}
{"smiles": "Cc1c(C(=O)NN2CCCCC2)nn(-c2ccc(Cl)cc2Cl)c1-c1ccc(Cl)cc1", "note": "[Rimonabant]", "values": [{"measurement": "[3H]CP 55,940 displ. @10 μM hCB2R", "setting": "hCB2R [3]", "value": 4, "unit": "%"}]}
{"smiles": "CCOc1ccc(Cc2nc3cc(C(=O)N(CC)CC)ccc3n2CCCCCCNc2c3c(nc4ccccc24)CCCC3)cc1", "note": "[3e, 2-(4-Ethoxybenzyl)-N,N-diethyl-1-(6-((1,2,3,4-tetrahydroacndin-9-yl)amino)hexyl)-1H-benzo[d]imidazole-5-carboxamide]", "values": [{"measurement": "Ki′ (inhibition constant for the enzyme-substrate-inhibitor complex), in words", "setting": "hAChE", "value": "submicromolar range"}, {"measurement": "inhibition of hAChE-induced Aβ40 aggregation (in words)", "setting": "[4]", "value": "significantly reduce the proaggregating action of hAChE"}, {"measurement": "inhibition of Aβ42 self-aggregation (in words)", "setting": "Aβ42", "value": "strongly inhibited"}, {"measurement": "neuroprotective behavior (in words)", "setting": "HT-22 cells; [7]", "value": "low neuroprotective behavior"}, {"measurement": "behaviour at hCB2R (in words)", "setting": "hCB2R [5]", "value": "partial agonists"}, {"measurement": "activity at hCB1R (in words)", "setting": "hCB1R", "value": "devoid of activity"}, {"measurement": "MIF and STAT-3 gene expression compared to vehicle", "setting": "[6]", "value": "decreased expression of both genes"}, {"measurement": "most effective dose, complete prevention of Aβ25–35 impairments in both tests", "setting": "[2]", "value": 0.3, "unit": "mg/kg"}]}
{"smiles": "CCOc1ccc(Cc2nc3cc(C(=O)NCCSSCCNc4c5c(nc6ccccc46)CCCC5)ccc3n2CCC(C)C)cc1", "note": "[compound 8, 2-(4-Ethoxybenzyl)-1-isopentyl-N-(2-((2-((1,2,3,4-tetrahydroacri-din-9-yl)amino)ethyl)disulfaneyl)ethyl)-1H-benzo[d]imidazole-5-carboxamide]", "values": [{"measurement": "inhibition of hAChE-induced Aβ40 aggregation (in words)", "setting": "[4]", "value": "not able to significantly inhibit"}, {"measurement": "inhibition of Aβ42 self-aggregation (in words)", "setting": "Aβ42", "value": "strongly inhibited"}, {"measurement": "neuroprotection at 5 μM (in words)", "setting": "HT-22 cells; HT-22 cells, 5 mM glutamate, 5 μM compound", "value": "neuroprotection comparable to the positive control quercetin at 25 μM"}, {"measurement": "concentration showing neuroprotection", "setting": "HT-22 cells; [7]", "value": "≥ 1", "unit": "µM"}, {"measurement": "most effective dose, complete prevention of Aβ25–35 impairments in both tests", "setting": "[2]", "value": 0.3, "unit": "mg/kg"}, {"measurement": "necrosis positive/specimen", "setting": "liver", "value": "8/11"}, {"measurement": "necrosis reported area %", "setting": "liver", "value": "5–50%"}]}
{"smiles": "CCOc1ccc(Cc2nc3cc(C(=O)NCCCCNc4c5c(nc6ccccc46)CCCC5)ccc3n2CCC(C)C)cc1", "note": "[4c, 2-(4-Ethoxybenzyl)-1-isopentyl-N-(4-((1,2,3,4-tetrahydroacridin-9-yl)amino)butyl)-1H-benzo[d]imidazole-5-carboxamide]", "values": [{"measurement": "behaviour at hCB2R (in words)", "setting": "hCB2R [5]", "value": "partial agonists"}, {"measurement": "activity at hCB1R (in words)", "setting": "hCB1R", "value": "devoid of activity"}, {"measurement": "MIF and STAT-3 gene expression compared to vehicle", "setting": "[6]", "value": "decreased expression of both genes"}]}
{"smiles": "CCOc1ccc(Cc2nc3cc(C(=O)NCCCNc4c5c(nc6ccccc46)CCCC5)ccc3n2CCC(C)C)cc1", "note": "[4b, 2-(4-Ethoxybenzyl)-1-isopentyl-N-(3-((1,2,3,4-tetrahydroacridin-9-yl)amino)propyl)-1H-benzo[d]imidazole-5-carboxamide]", "values": [{"measurement": "inhibition of Aβ42 self-aggregation (in words)", "setting": "Aβ42", "value": "quite weak"}]}
{"smiles": "CCOc1ccc(Cc2nc3cc(C(=O)N(CC)CC)ccc3n2CCCCCNc2c3c(nc4ccccc24)CCCC3)cc1", "note": "[3d, 2-(4-Ethoxybenzyl)-N,N-diethyl-1-(5-((1,2,3,4-tetrahydroacridin-9-yl)amino)pentyl)-1H-benzo[d]imidazole-5-carboxamide]", "values": [{"measurement": "neuroprotective behavior (in words)", "setting": "HT-22 cells", "value": "none"}, {"measurement": "necrosis positive/specimen", "setting": "liver", "value": "5/6"}, {"measurement": "necrosis reported area %", "setting": "liver", "value": "5–15%"}]}
{"smiles": "CCOc1ccc(Cc2nc3cc(C(=O)NCCCCCCNc4c5c(nc6ccccc46)CCCC5)ccc3n2CCC(C)C)cc1", "note": "[4e, 2-(4-Ethoxybenzyl)-1-isopentyl-N-(6-((1,2,3,4-tetrahydroacridin-9-yl)amino)hexyl)-1H-benzo[d]imidazole-5-carboxamide]", "values": [{"measurement": "affinity at the μ-opioid receptor (in words)", "setting": "μ-opioid receptor (MOR)", "value": "significant affinity"}]}
